Measured values published in US10105357B2, “Indication of antibiotic drugs for preparation of cancer inhibition pharmaceutical composition” (LAUNX BIOMEDICAL CO., LTD., priority 2014, dated 2018).
Counter-ions that a name gives are not always drawn. Like-named read-outs stand apart in the source and are kept apart here.

Columns and labels:
[1] = tested on: cancer cell lines; test: Cell viability analysis (WST-1) on cancer cell lines; type: cell-based, human; settings: drug 10 μM, 72 hours, WST-1; Table 3
[2] = tested on: HI650 (Lung Adenocarcinoma); test: Cell viability analysis, lung cancer HI650; type: cell-based, human; settings: Homo sapiens, NCI-H1650, 72 h
[3] = tested on: A549 (Lung Adenocarcinoma); test: Cell viability analysis, lung cancer A549; type: cell-based, human; settings: Homo sapiens, A549, 72 h
[4] = tested on: AGS (Gastric Adenocarcinoma); test: Cell viability analysis, gastric cancer AGS; type: cell-based, human; settings: Homo sapiens, 72 h
[5] = tested on: MKN-45 (Gastric Adenocarcinoma); test: Cell viability analysis, gastric cancer MKN-45; type: cell-based, human; settings: Homo sapiens, MKN-45, 72 h
[6] = tested on: HepG2 (Hepatocellular Carcinoma); test: Cell viability analysis, hepatic cancer HepG2; type: cell-based, human; settings: Homo sapiens, HepG2, 72 h
[7] = tested on: Hep3B (hepatocellular carcinoma); test: Cell viability analysis, hepatic cancer Hep3B; type: cell-based, human; settings: Homo sapiens, Hep3B, 72 h, read-out: The results of antibiotic drug inhibiting cancer cell lines (cell viability analysis), Hep3B
[8] = tested on: LoVo (Colorectal Adenocarcinoma); test: Cell viability analysis, colon cancer LoVo; type: cell-based, human; settings: Homo sapiens, LoVo, 72 h
[9] = tested on: A375 (Amelanotic Melanoma); test: Cell viability analysis, skin cancer A375; type: cell-based, human; settings: Homo sapiens, A-375, 72 h, read-out: cell viability (survival rate), A375, drug 10 μM, 72 hours, WST-1, OD450 nm
[10] = tested on: BCC (basal cell carcinoma); test: Cell viability analysis, skin cancer BCC; type: cell-based, human; settings: Homo sapiens, 72 h, read-out: The results of antibiotic drug inhibiting cancer cell lines (cell viability analysis), BCC
[11] = tested on: HeLa (Cervix Adenocarcinoma); test: Cell viability analysis, cervical cancer HeLa; type: cell-based, human; settings: Homo sapiens, HeLa, 72 h
[12] = tested on: C-33A (Cervical carcinoma); test: Cell viability analysis, cervical cancer C-33A; type: cell-based, human; settings: Homo sapiens, C-33-A, 72 h, read-out: The results of antibiotic drug inhibiting cancer cell lines (cell viability analysis), C-33A
[13] = tested on: PC3 (p53−) (Prostate Adenocarcinoma); test: Cell viability analysis, prostate cancer PC3; type: cell-based, human; settings: Homo sapiens, 72 h
[14] = tested on: TSGH-8301 (Urinary Bladder Carcinoma); test: Cell viability analysis, bladder cancer TSGH-8301; type: cell-based, human; settings: Homo sapiens, 72 h
[15] = tested on: T24; test: Cell viability analysis, bladder cancer T24; type: cell-based, human; settings: Homo sapiens, T-24, 72 h, read-out: The results of antibiotic drug inhibiting cancer cell lines (cell viability analysis), T24
[16] = tested on: MCF7 (Mammary Gland, Adenocarcinoma); test: Cell viability analysis, breast cancer MCF7; type: cell-based, human; settings: Homo sapiens, MCF7, 72 h
[17] = tested on: MDA-MB-231 (Mammary Gland, Adenocarcinoma); test: Cell viability analysis, breast cancer MDA-MB-231; type: cell-based, human; settings: Homo sapiens, MDA-MB-231, 72 h, read-out: The results of antibiotic drug inhibiting cancer cell lines (cell viability analysis), MDA-MB231
[18] = tested on: BxPC-3; test: Cell viability analysis, pancreatic cancer BxPC-3; type: cell-based, human; settings: Homo sapiens, BXPC-3, 72 h, read-out: The results of antibiotic drug inhibiting cancer cell lines (cell viability analysis), BxPC-3
[19] = tested on: AsPC-1; test: Cell viability analysis, pancreatic cancer AsPC-1; type: cell-based, human; settings: Homo sapiens, ASPC1, 72 h, read-out: The results of antibiotic drug inhibiting cancer cell lines (cell viability analysis), AsPC-1
[20] = tested on: TOV-21G; test: Cell viability analysis, ovarian cancer TOV-21G; type: cell-based, human; settings: Homo sapiens, TOV21G, 72 h, read-out: The results of antibiotic drug inhibiting cancer cell lines (cell viability analysis), TOV-21G
[21] = tested on: SAS (Tongue squamous cell carcinoma); test: Cell viability analysis, tongue cancer SAS; type: cell-based, human; settings: Homo sapiens, 72 h, read-out: The results of antibiotic drug inhibiting cancer cell lines (cell viability analysis), SAS
[22] = tested on: U-2OS; test: Cell viability analysis, osteosarcoma U-2OS; type: cell-based, human; settings: Homo sapiens, U2OS, 72 h, read-out: The results of antibiotic drug inhibiting cancer cell lines (cell viability analysis), U2OS
[23] = tested on: 786-O (Renal adenocarcinoma); test: Cell viability analysis, renal cancer 786-O; type: cell-based, human; settings: Homo sapiens, 786-0, 72 h, read-out: The results of antibiotic drug inhibiting cancer cell lines (cell viability analysis), 786-O
[24] = tested on: HL-60 (Acute Promyelocytic Leukemia); test: Cell viability analysis, leukemia HL-60; type: cell-based, human; settings: Homo sapiens, HL-60, 72 h, read-out: cell viability (survival rate), HL-60, drug 10 μM, 72 hours, WST-1, OD450 nm
[25] = tested on: HCT116 (p53+) (Colorectal Carcinoma)

CN(C)CCC[C@@]1(c2ccc(F)cc2)OCc2cc(C#N)ccc21 [Escitalopram oxalate]
inhibition effect on different cancer cell lines [1]: significant inhibition effect | viability at 10 µM ([2]; read-out: The results of antibiotic drug inhibiting cancer cell lines (cell viability analysis), H1650, H1650, repeated experiment): 92.1% | viability at 10 µM ([2]; read-out: cell viability (survival rate), H1650, drug 10 μM, 72 hours, WST-1, OD450 nm): 80.4% | viability at 10 µM ([3]; read-out: The results of antibiotic drug inhibiting cancer cell lines (cell viability analysis), A549, A549, repeated experiment): 103% | viability at 10 µM ([3]; read-out: cell viability (survival rate), A549, drug 10 μM, 72 hours, WST-1, OD450 nm): 122% | viability at 10 µM ([4]; read-out: The results of antibiotic drug inhibiting cancer cell lines (cell viability analysis), AGS, repeated experiment): 145% | viability at 10 µM ([4]; read-out: cell viability (survival rate), AGS, drug 10 μM, 72 hours, WST-1, OD450 nm): 62.3% | viability at 10 µM ([5]; read-out: The results of antibiotic drug inhibiting cancer cell lines (cell viability analysis), MKN-45, MKN-45, repeated experiment): 127% | viability at 10 µM ([5]; read-out: cell viability (survival rate), MKN-45, drug 10 μM, 72 hours, WST-1, OD450 nm): 116% | viability at 10 µM ([6]; read-out: The results of antibiotic drug inhibiting cancer cell lines (cell viability analysis), HepG2, HepG2, repeated experiment): 113% | viability at 10 µM ([6]; read-out: cell viability (survival rate), HepG2, drug 10 μM, 72 hours, WST-1, OD450 nm): 94% | viability at 10 µM [7]: 134% | viability at 10 µM ([8]; read-out: The results of antibiotic drug inhibiting cancer cell lines (cell viability analysis), LoVo, repeated experiment): 89.3% | viability at 10 µM ([8]; read-out: cell viability (survival rate), LoVo, drug 10 μM, 72 hours, WST-1, OD450 nm): 91.6% | viability at 10 µM [9]: 68% | viability at 10 µM [10]: 102% | viability at 10 µM ([11]; read-out: The results of antibiotic drug inhibiting cancer cell lines (cell viability analysis), HeLa, repeated experiment): 126% | viability at 10 µM ([11]; read-out: cell viability (survival rate), HeLa, drug 10 μM, 72 hours, WST-1, OD450 nm): 95% | viability at 10 µM [12]: 110% | viability at 10 µM ([13]; read-out: The results of antibiotic drug inhibiting cancer cell lines (cell viability analysis), PC-3, PC-3, repeated experiment): 120% | viability at 10 µM ([13]; read-out: cell viability (survival rate), PC3, drug 10 μM, 72 hours, WST-1, OD450 nm): 79.5% | viability at 10 µM ([14]; read-out: The results of antibiotic drug inhibiting cancer cell lines (cell viability analysis), TSGH-8301, TSGH-8301, repeated experiment): 135% | viability at 10 µM ([14]; read-out: cell viability (survival rate), TSGH, drug 10 μM, 72 hours, WST-1, OD450 nm): 80.6% | viability at 10 µM [15]: 97.7% | viability at 10 µM ([16]; read-out: The results of antibiotic drug inhibiting cancer cell lines (cell viability analysis), MCF-7, MCF-7, repeated experiment): 80.1% | viability at 10 µM ([16]; read-out: cell viability (survival rate), MCF7, drug 10 μM, 72 hours, WST-1, OD450 nm): 97.4% | viability at 10 µM [17]: 111% | viability at 10 µM [18]: 68.1% | viability at 10 µM [19]: 80.3% | viability at 10 µM [20]: 117% | viability at 10 µM [21]: 65.3% | viability at 10 µM [22]: 62.2% | viability at 10 µM [23]: 88.8% | viability at 10 µM [24]: 92.7% | viability [25]: 123%
